In patent US6624182B1, “Hydroxyphenylvinylthiazoles” (Ciba Specialty Chemicals Corporation, priority 1999, dated 2003):

Legend:
Test in all cases: Determination of the minimum inhibitory concentration (MIC value) in microtitre plates
S. aureus = type: cell-based; conditions: optical density at 620 nm, 48 hours at 37° C., MIC = ≦20% growth; tested at 100; 10 and 1 ppm (approximate values); (2), (3), (4) at 120; 60; 30; 15; 7.5; 3.75 ppm
Excerpt: (§1) Determination of the Minimum Inhibitory Concentration (MIC Value) in Microtitre Plates Nutrient Medium Casein/soybean flour/peptone bouillon for the preparation of preliminary cultures of the test bacteria and yeast. Mycological slant agar for the preliminary culture of moulds Examples of Test Microbes: Bacteria: Staphylococcus hominis DMS 20328 Procedure: The test substances are pre-dissolved in dimethyl sulfoxide (DMSO) and tested in a series of dilutions of 1:2. Bacteria and yeast are cultured overnight in CASO bouillon; the mould is cultured on myco-logical slant agar and sponged off with 10 ml of 0.85% sodium chloride solution (+0.1% Triton X-100). All the test microbes are adjusted to a germ count of 1−5×10^6 KBE/ml using 0.85% sodium chloride solution. The test substances are pre-pipetted into microtitre plates in an amount of 8 μl per well. Pre-diluted microbe suspensions are diluted 1:100 in CASO bouillon (bacteria and yeast) or Sabouraud 2% glucose bouillon (mould) and added to the test substances in an amount of 192 μl per well. The test batches are incubated for 48 hours at 37° C. (bacteria and yeast) or for 5 days at 28° C. (mould). After incubation, the growth is determined by means of the clouding of the test batches (optical density) at 620 nm in a microplate reader. The concentration of substance at which (compared with the growth control) a marked inhibition of growth (≦20% growth) of the test microbes can be observed is given as the minimum inhibitory concentration (MIC value). One microtitre plate is used per test microbe and substance concentration. All substances are tested in duplicate.

E. coli = type: cell-based, Escherichia coli NCTC 8196; conditions: optical density at 620 nm, 48 hours at 37° C., MIC = ≦20% growth; tested at 100; 10 and 1 ppm (approximate values); (2), (3), (4) at 120; 60; 30; 15; 7.5; 3.75 ppm
Description: as §1, with “Escherichia coli NCTC 8196” for “Staphylococcus hominis DMS 20328”

P. aeruginosa = type: cell-based, Pseudomonas aeruginosa CIP A-22; conditions: optical density at 620 nm, 48 hours at 37° C., MIC = ≦20% growth; tested at 100; 10 and 1 ppm (approximate values); (2), (3), (4) at 120; 60; 30; 15; 7.5; 3.75 ppm
Description: as §1, with “Pseudomonas aeruginosa CIP A-22” for “Staphylococcus hominis DMS 20328”

C. albicans = type: cell-based, Candida albicans ATCC 10231; conditions: optical density at 620 nm, 48 hours at 37° C., MIC = ≦20% growth; tested at 100; 10 and 1 ppm (approximate values); (2), (3), (4) at 120; 60; 30; 15; 7.5; 3.75 ppm
Description: as §1, with “Yeast: Candida albicans ATCC 10231” for “Bacteria: Staphylococcus hominis DMS 20328”

A. niger = type: cell-based, Aspergillus niger ATCC 6275; conditions: optical density at 620 nm, 5 days at 28° C., MIC = ≦20% growth; tested at 100; 10 and 1 ppm (approximate values); (2), (3), (4) at 120; 60; 30; 15; 7.5; 3.75 ppm
Description: as §1, with “Mould: Aspergillus niger ATCC 6275” for “Bacteria: Staphylococcus hominis DMS 20328”

COc1cc(/C=C/c2nc(-c3ccc(F)cc3)cs2)ccc1O [Compound of formula (8)]
>100 ppm: MIC values in ppm S. aureus (S. aureus) | MIC values in ppm E. coli (E. coli) | MIC values in ppm P. aeruginosa (P. aeruginosa) | MIC values in ppm C. albicans (C. albicans) | MIC values in ppm A. niger (A. niger)

COc1cc(O)ccc1/C=C/c1nc(-c2ccccc2)cs1 [Compound of formula (61)]
>100 ppm: MIC values in ppm S. aureus (S. aureus) | MIC values in ppm E. coli (E. coli) | MIC values in ppm P. aeruginosa (P. aeruginosa) | MIC values in ppm C. albicans (C. albicans) | MIC values in ppm A. niger (A. niger)

CCc1csc(/C=C/c2ccc(O)c(OC)c2)n1 [Compound of formula (43)]
>100 ppm: MIC values in ppm S. aureus (S. aureus) | MIC values in ppm E. coli (E. coli) | MIC values in ppm P. aeruginosa (P. aeruginosa) | MIC values in ppm C. albicans (C. albicans) | MIC values in ppm A. niger (A. niger)

CCc1csc(/C=C/c2ccc(O)cc2)n1 [Compound of formula (39)]
>100 ppm: MIC values in ppm S. aureus (S. aureus) | MIC values in ppm E. coli (E. coli) | MIC values in ppm P. aeruginosa (P. aeruginosa) | MIC values in ppm C. albicans (C. albicans) | MIC values in ppm A. niger (A. niger)

Cc1cccc(/C=C/c2nc(C(C)(C)C)cs2)c1O [Compound of formula (24)]
>100 ppm: MIC values in ppm S. aureus (S. aureus) | MIC values in ppm E. coli (E. coli) | MIC values in ppm P. aeruginosa (P. aeruginosa) | MIC values in ppm C. albicans (C. albicans) | MIC values in ppm A. niger (A. niger)

CC(C)(C)c1csc(/C=C/c2ccc(OCc3ccccc3)cc2O)n1 [Compound of formula (25)]
>100 ppm: MIC values in ppm S. aureus (S. aureus) | MIC values in ppm E. coli (E. coli) | MIC values in ppm P. aeruginosa (P. aeruginosa) | MIC values in ppm C. albicans (C. albicans) | MIC values in ppm A. niger (A. niger)

Oc1cccc(/C=C/c2nc(-c3ccc(N4CCCC4)cc3)cs2)c1 [Compound of formula (28)]
>100 ppm: MIC values in ppm S. aureus (S. aureus) | MIC values in ppm E. coli (E. coli) | MIC values in ppm P. aeruginosa (P. aeruginosa) | MIC values in ppm C. albicans (C. albicans) | MIC values in ppm A. niger (A. niger)

COc1cc(O)ccc1/C=C/c1nc(C(C)(C)C)cs1 [Compound of formula (26)]
>100 ppm: MIC values in ppm S. aureus (S. aureus) | MIC values in ppm E. coli (E. coli) | MIC values in ppm P. aeruginosa (P. aeruginosa) | MIC values in ppm C. albicans (C. albicans) | MIC values in ppm A. niger (A. niger)

CC(C)(C)c1csc(/C=C/c2cccc(O)c2)n1 [Compound of formula (17)]
>100 ppm: MIC values in ppm S. aureus (S. aureus) | MIC values in ppm E. coli (E. coli) | MIC values in ppm P. aeruginosa (P. aeruginosa) | MIC values in ppm C. albicans (C. albicans) | MIC values in ppm A. niger (A. niger)

CCc1csc(/C=C/c2ccccc2O)n1 [Compound of formula (45)]
>100 ppm: MIC values in ppm S. aureus (S. aureus) | MIC values in ppm E. coli (E. coli) | MIC values in ppm P. aeruginosa (P. aeruginosa) | MIC values in ppm C. albicans (C. albicans) | MIC values in ppm A. niger (A. niger)

Oc1ccc(/C=C/c2nc(-c3ccc(N4CCCC4)cc3)cs2)cc1 [Compound of formula (27)]
>100 ppm: MIC values in ppm S. aureus (S. aureus) | MIC values in ppm E. coli (E. coli) | MIC values in ppm P. aeruginosa (P. aeruginosa) | MIC values in ppm C. albicans (C. albicans) | MIC values in ppm A. niger (A. niger)

Oc1cc(OCc2ccccc2)ccc1/C=C/c1nc(-c2ccc(F)cc2)cs1 [Compound of formula (14)]
>100 ppm: MIC values in ppm S. aureus (S. aureus) | MIC values in ppm E. coli (E. coli) | MIC values in ppm P. aeruginosa (P. aeruginosa) | MIC values in ppm C. albicans (C. albicans) | MIC values in ppm A. niger (A. niger)
